In article PMC7035970 (Cell chemical biology, 2019):
≈ marks a conversion by molar mass, not a printed value.

Assays:
[1] = test system: M. tuberculosis strain ddn∷tn; assay: microbe, parasite or virus in culture; type: cell-based, Mycobacterium tuberculosis; conditions: for MIC: Mycobacterium tuberculosis
[2] = test system: M. tuberculosis strain DRM12 (katG S315T); type: cell-based, Mycobacterium tuberculosis
[3] = test system: M. tuberculosis strain fgd1∷tn; assay: MIC versus F420H2 deficient strain fgd1∷tn; type: cell-based, Mycobacterium tuberculosis; conditions: Mycobacterium tuberculosis
[4] = test system: spontaneous M. tuberculosis JSF-2019 resistant mutant strains; type: cell-based, Mycobacterium tuberculosis
[5] = test system: M. tuberculosis strain JSF-Mtb-1 (fbiC F567S, inhA promoter c(−15)t); type: cell-based, Mycobacterium tuberculosis
[6] = test system: M. tuberculosis strain mc^24914 (inhA promoter c(−15)t); assay: microbe, parasite or virus in culture; type: cell-based, Mycobacterium tuberculosis; conditions: for MIC: Mycobacterium tuberculosis
[7] = test system: M. tuberculosis clinical strains TDR31, TDR36, and TDR116; type: cell-based, Mycobacterium tuberculosis
M. tuberculosis H37Rv = conditions: introduction, no reference given; cited from earlier work

SMILES	MIC [1] [µM]	MIC [2] [µM]	MIC shift / loss of efficacy, DRM12 (KatG S315T) versus H37Rv [2]	MIC [3] [µM]	MIC [4] [µM]	MIC shift versus the parental strain H37Rv [4] [x]	MIC [5] [µM]	MIC shift, mc^24914 (inhA overexpression) versus H37Rv [6]	MIC [6] [µM]	loss of susceptibility, ddn∷tn versus wild type H37Rv [1] [x]	MIC change, JSF-Mtb-1 versus H37Rv [5] [x]	activity versus clinical isolates with the KatG S315T mutation [7]	loss of potency from any one resistance mutation (M. tuberculosis H37Rv) [fold]
NNC(=O)c1ccncc1 [INH, reference compound]	0.16 (≈ 0.0219 µg/mL)	>10	> 62 fold	0.16 (≈ 0.0219 µg/mL)	0.16 (≈ 0.0219 µg/mL)	8	1.25 (≈ 0.171 µg/mL)	8 x	1.25 (≈ 0.171 µg/mL)				
O=[N+]([O-])c1ccc(/C=N/Nc2nc(Nc3ccccc3)nc(Nc3ccccc3)n2)o1 [JSF-2019, (E)-6-(2-((5-nitrofuran-2-yl)methylene)hydrazinyl)-N2,N4-diphenyl-1,3,5-triazine-2,4-diamine]	0.63 (≈ 0.262 µg/mL)	0.078 (≈ 0.0325 µg/mL)	lack of an MIC shift	1.3 (≈ 0.541 µg/mL)			5.0 (≈ 2.08 µg/mL)	8 x	0.63 (≈ 0.262 µg/mL)	8	64	maintained its wild type strain activity	
O=[N+]([O-])c1ccc(/C=N/Nc2nc(Nc3ccccc3)nc(N3CCOCC3)n2)o1 [JSF-2513, (E)-4-morpholino-6-(2-((5-nitrofuran-2-yl)methylene)hydrazineyl)-N-phenyl-1,3,5-triazin-2-amine]	1.3 (≈ 0.534 µg/mL)	0.63 (≈ 0.259 µg/mL)	lack of an MIC shift	10 (≈ 4.1 µg/mL)			20 (≈ 8.21 µg/mL)	four-fold	2.5 (≈ 1.03 µg/mL)	2			
O=[N+]([O-])c1cn2c(n1)OC[C@@H](OCc1ccc(OC(F)(F)F)cc1)C2 [Pretomanid, reference compound]		0.039 (≈ 0.014 µg/mL)		> 40			>40		0.16 (≈ 0.0575 µg/mL)	> 1000			≥ 500
C[C@]1(COc2ccc(N3CCC(Oc4ccc(OC(F)(F)F)cc4)CC3)cc2)Cn2cc([N+](=O)[O-])nc2O1 [delamanid]													≥ 500
